Row | Structure (SMILES) | logP
1 | CC=NN(C(=O)c1ccccc1)c1ccccc1 | 2.76
2 | COc1ccc(C(=O)N(N)c2ccccc2)cc1 | 2.83
3 | Cc1ccc(C(=O)N(NC(=S)Nc2ccccc2)c2ccccc2)cc1 | 4.08
4 | CC=NN(C(=O)c1ccc([N+](=O)[O-])cc1)c1ccccc1 | 3.08
5 | Cc1ccc(C(=O)N(C)NC(=S)Nc2ccccc2)cc1 | 3.01
6 | Cc1ccc(C(=O)N(C)N)cc1 | 1.36
7 | CC=NN(C(=O)c1ccc(C)cc1)c1ccccc1 | 3.6
8 | CN(NC(=S)Nc1ccccc1)C(=O)c1ccc([N+](=O)[O-])cc1 | 2.68
9 | CN(N)C(=O)c1ccc([N+](=O)[O-])cc1 | 0.75
10 | O=C(c1ccc([N+](=O)[O-])cc1)N(NC(=S)Nc1ccccc1)c1ccccc1 | 3.87
11 | NN(C(=O)c1ccc([N+](=O)[O-])cc1)c1ccccc1 | 2.48
12 | CC=NN(C(=O)c1ccc(OC)cc1)c1ccccc1 | 3.18
13 | COc1ccc(C(=O)N(NC(=S)Nc2ccccc2)c2ccccc2)cc1 | 3.94
14 | Cc1ccc(C(=O)N(N)c2ccccc2)cc1 | 3

Further lines, results first:

Row | logP | Structure (SMILES)
15 | 2.56 | COc1ccc(C(=O)N(C)NC(=S)Nc2ccccc2)cc1
16 | 3.73 | O=C(c1ccccc1)N(NC(=S)Nc1ccccc1)c1ccccc1
17 | 2.47 | CN(NC(=S)Nc1ccccc1)C(=O)c1ccccc1
18 | 1 | COc1ccc(C(=O)N(C)N)cc1
19 | 2.3 | NN(C(=O)c1ccccc1)c1ccccc1
20 | 0.7 | CN(N)C(=O)c1ccccc1

Reference: the OPERA property sets (Mansouri et al. 2018)
